Like-named read-outs stand apart in the source and are kept apart here.
Key:
Assay type in all cases: cell-based
INF-γ = experiment: Cytokine assay: INF-γ production by human PBMC stimulated with PHA; conditions: IC50 class, read-out: IFN-gamma Inhib.
Procedure: (§1) Cytokine Assay: Analysis of Proliferation of and Cytokine Production by Human PBMC Stimulated with PHA
(§2) Peripheral blood mononuclear cells (PBMC) from healthy human donors were purified using Accuspin™ System-Histopaque-1077 (Sigma) according to the protocol recommended by the manufacturer. Purified PBMC were then washed twice with phosphate-buffered saline (PBS) and resuspended in RPMI1640 culture medium supplemented with 10% dialyzed heat inactivated fetal calf serum, 1.5 mM L-glutamine, 100 U penicillin/ml, and […] (all from PAN Biotech, Aidenbach, Germany). For stimulation, PBMC were seeded at 1×10^5 cells/well, activated with 2 μg/ml phytohaemagglutinin (PHA, Sigma) and incubated with the test compounds for 48 hours. IL-17A, IL-17F and INF-γ were then determined in the culture supernatant using a Luminex BioPlex system, following the manufacturer's instructions (BioRad, Munich, Germany). For screening, compounds were used at 10, 1, 0.1 and 0.01 μM. To determine the IC50, compounds were titrated semilogarithmically.
(§3) Cytokines were determined in the aforementioned culture supernatant using the following methods: IL-17A was measured using the human homodimer IL-17A ELISA Ready Set Go Kit from eBioscience (Frankfurt, Germany); IL-17F using the human IL-17F ELI-Pair from Hölzel DiagnosticaGmBH (Köln, Germany); and IFN-γ using the OptEIA human IFN-g ELISA from BD Bioscience (Heidelberg, Germany), all following the manufacturer's instructions.

IL-17F = experiment: Cytokine assay: IL-17F production by human PBMC stimulated with PHA; conditions: IC50 class, read-out: IL-17F Inhib.
Procedure: as §1, §2, §3

IL-17A = experiment: Cytokine assay: IL-17A production by human PBMC stimulated with PHA; conditions: IC50 class, read-out: IL-17A Inhib.
Procedure: as §1, §2, §3

`C[C@H](O)Cn1ncc(-c2onc(-c3ccccc3Cl)c2C2CCCO2)c1C(F)(F)F` (stereo partly drawn) [Example 96, (2S)-1-{4-[3-(2-chlorophenyl)-4-(oxolan-2-yl)-1,2-oxazol-5-yl]-5-(trifluoromethyl)-1H-pyrazol-1-yl}propan-2-ol] was tested, and the IC50 (INF-γ; Homo sapiens, PBMC) was 50 to 500 nM, the IC50 (IL-17F; Homo sapiens, PBMC) was 500 to 5000 nM and the IC50 (IL-17A; Homo sapiens, PBMC) was 500 to 5000 nM.
`Cc1c(-c2onc(-c3ccccc3Cl)c2C(=O)OC2CC2)cnn1[C@H]1C[C@@](C)(O)C1` [Example 54, cyclopropyl 3-(2-chlorophenyl)-5-{5-methyl-1-[3-hydroxy-3-methylcyclobutyl]-1H-pyrazol-4-yl}-1,2-oxazole-4-carboxylate] showed an IC50 (INF-γ) of 50 to 500 nM, an IC50 (IL-17F) of 500 to 5000 nM and an IC50 (IL-17A) of 500 to 5000 nM.
`COC(=O)c1c(-c2cccnc2O)noc1-c1cnn(CC(C)(C)O)c1C(F)(F)F` [Example 93, methyl 5-[1-(2-hydroxy-2-methylpropyl)-5-(trifluoromethyl)-1H-pyrazol-4-yl]-3-(2-hydroxypyridin-3-yl)-1,2-oxazole-4-carboxylate] showed an IC50 (INF-γ; Homo sapiens, PBMC) of 50 to 500 nM, an IC50 (IL-17F; Homo sapiens, PBMC) of 50 to 500 nM and an IC50 (IL-17A; Homo sapiens, PBMC) of 500 to 5000 nM.
For `COc1ccccc1-c1noc(-c2cnn(C[C@@H](C)O)c2C(F)(F)F)c1-c1ncccn1` [Example 113, (2R)-1-{4-[3-(2-methoxyphenyl)-4-(pyrimidin-2-yl)-1,2-oxazol-5-yl]-5-(trifluoromethyl)-1H-pyrazol-1-yl}propan-2-ol], the IC50 (INF-γ; Homo sapiens, PBMC) was 500 to 5000 nM, the IC50 (IL-17F; Homo sapiens, PBMC) was 50 to 500 nM and the IC50 (IL-17A; Homo sapiens, PBMC) was 500 to 5000 nM.
In the case of `CN(C)CCCOc1cccc(-c2noc(-c3cnn(CCC(C)(C)O)c3C(F)(F)F)c2-c2ncccn2)c1Cl` [Example 140, 4-[4-(3-{2-chloro-3-[3-(dimethylamino)propoxy]phenyl}-4-(pyrimidin-2-yl)-1,2-oxazol-5-yl)-5-(trifluoromethyl)-1H-pyrazol-1-yl]-2-methylbutan-2-ol], the IC50 (INF-γ; Homo sapiens, PBMC) is reported as 50 to 500 nM, the IC50 (IL-17F; Homo sapiens, PBMC) is reported as 50 to 500 nM and the IC50 (IL-17A; Homo sapiens, PBMC) is reported as 50 to 500 nM.
For `C=CCCC(O)(CC1CC1)c1c(-c2c(F)cccc2Cl)noc1-c1cnn(CC(C)(C)O)c1C(F)(F)F` (racemic) [Example 38, 2-[3-(2-chloro-6-fluorophenyl)-5-[1-(2-hydroxy-2-methylpropyl)-5-(trifluoromethyl)-1H-pyrazol-4-yl]-1,2-oxazol-4-yl]-1-cyclopropylhex-5-en-2-ol], the IC50 (INF-γ; Homo sapiens, PBMC) was no less than 5000 nM, the IC50 (IL-17F; Homo sapiens, PBMC) was no less than 5000 nM and the IC50 (IL-17A; Homo sapiens, PBMC) was 500 to 5000 nM.
`C[C@]1(O)C[C@@H](n2ncc(-c3onc(-c4ccccc4Cl)c3CO)c2C(F)(F)F)C1` [Example 64, 3-(4-(3-(2-chlorophenyl)-4-(hydroxymethyl)-1,2-oxazol-5-yl)-5-(trifluoromethyl)-1H-pyrazol-1-yl)-1-methylcyclobutan-1-ol] was tested, and the IC50 (INF-γ; Homo sapiens, PBMC) was 500 to 5000 nM, the IC50 (IL-17F; Homo sapiens, PBMC) was no less than 5000 nM and the IC50 (IL-17A; Homo sapiens, PBMC) was no less than 5000 nM.
Work on `COCCOCc1c(-c2ccccc2Cl)noc1-c1cnn(C[C@H](C)O)c1C(F)(F)F` [Example 75, (2S)-1-{4-[3-(2-chlorophenyl)-4-[(2-methoxyethoxy)methyl]-1,2-oxazol-5-yl]-5-(trifluoromethyl)-1H-pyrazol-1-yl}propan-2-ol] yielded an IC50 (INF-γ; Homo sapiens, PBMC) of 500 to 5000 nM, an IC50 (IL-17F; Homo sapiens, PBMC) of 500 to 5000 nM and an IC50 (IL-17A; Homo sapiens, PBMC) of 500 to 5000 nM.
Work on `COCc1c(-c2c(F)cccc2Cl)noc1-c1cnn(C[C@H](C)O)c1C(F)(F)F` [Example 68, (2S)-1-(4-(3-(2-chloro-6-fluorophenyl)-4-(methoxymethyl)isoxazol-5-yl)-5-(trifluoromethyl)-1H-pyrazol-1-yl)propan-2-ol] yielded an IC50 (INF-γ; Homo sapiens, PBMC) of 50 to 500 nM, an IC50 (IL-17F; Homo sapiens, PBMC) of 500 to 5000 nM and an IC50 (IL-17A; Homo sapiens, PBMC) of 500 to 5000 nM.
`CCN(CC)CCCOc1cccc(-c2noc(-c3cnn(CCC(C)(C)O)c3C(F)(F)F)c2-c2ncccn2)c1Cl` [Example 143, 4-[4-(3-{2-chloro-3-[3-(diethylamino)propoxy]phenyl}-4-(pyrimidin-2-yl)-1,2-oxazol-5-yl)-5-(trifluoromethyl)-1H-pyrazol-1-yl]-2-methylbutan-2-ol] gave an IC50 (INF-γ; Homo sapiens, PBMC) of less than 50 nM, an IC50 (IL-17F; Homo sapiens, PBMC) of less than 50 nM and an IC50 (IL-17A; Homo sapiens, PBMC) of less than 50 nM.
Compound `C[C@@H](O)Cn1ncc(-c2onc(-c3cccc(C(=O)N4CCC4)c3Cl)c2-c2ccncn2)c1C(F)(F)F` [Example 158, (R)-(azetidin-1-yl)(2-chloro-3-(5-(1-(2-hydroxypropyl)-5-(trifluoromethyl)-1H-pyrazol-4-yl)-4-(pyrimidin-4-yl)isoxazol-3-yl)phenyl)methanone] has an IC50 (INF-γ; Homo sapiens, PBMC) of 50 to 500 nM, an IC50 (IL-17F; Homo sapiens, PBMC) of 50 to 500 nM and an IC50 (IL-17A; Homo sapiens, PBMC) of 50 to 500 nM.
For `C[C@@H](O)Cn1ncc(-c2cc(-c3c(F)cccc3Cl)no2)c1C(F)(F)F` [Example 94, (2R)-1-(4-(3-(2-chloro-6-fluorophenyl)isoxazol-5-yl)-5-(trifluoromethyl)-1H-pyrazol-1-yl)propan-2-ol], the IC50 (INF-γ; Homo sapiens, PBMC) was 500 to 5000 nM, the IC50 (IL-17F; Homo sapiens, PBMC) was no less than 5000 nM and the IC50 (IL-17A; Homo sapiens, PBMC) was no less than 5000 nM.
`COc1c(C(=O)NC2CC2)cccc1-c1noc(-c2cnn(C[C@@H](C)O)c2C(F)(F)F)c1-c1ccncn1` [Example 161, (R)—N-cyclopropyl-3-(5-(1-(2-hydroxypropyl)-5-(trifluoromethyl)-1H-pyrazol-4-yl)-4-(pyrimidin-4-yl)isoxazol-3-yl)-2-methoxybenzamide] gave an IC50 (INF-γ; Homo sapiens, PBMC) of 500 to 5000 nM, an IC50 (IL-17F; Homo sapiens, PBMC) of no less than 5000 nM and an IC50 (IL-17A; Homo sapiens, PBMC) of no less than 5000 nM.
With `C[C@]1(O)C[C@H](n2ncc(-c3onc(-c4c(F)cccc4Cl)c3C(=O)OC3CC3)c2C(F)(F)F)C1` [Example 50, cyclopropyl 3-(2-chloro-6-fluorophenyl)-5-(1-(3-hydroxy-3-methylcyclobutyl)-5-(trifluoromethyl)-1H-pyrazol-4-yl)isoxazole-4-carboxylate] the IC50 (INF-γ; Homo sapiens, PBMC) was less than 50 nM, the IC50 (IL-17F; Homo sapiens, PBMC) was less than 50 nM and the IC50 (IL-17A; Homo sapiens, PBMC) was 50 to 500 nM.
Work on `CC(C)(O)Cn1ncc(-c2onc(-c3c(F)cccc3Cl)c2C(=O)OC2COC2)c1C(F)(F)F` [Example 57, oxetan-3-yl 3-(2-chloro-6-fluorophenyl)-5-[1-(2-hydroxy-2-methylpropyl)-5-(trifluoromethyl)-1H-pyrazol-4-yl]-1,2-oxazole-4-carboxylate] yielded an IC50 (INF-γ; Homo sapiens, PBMC) of 50 to 500 nM, an IC50 (IL-17F; Homo sapiens, PBMC) of 50 to 500 nM and an IC50 (IL-17A; Homo sapiens, PBMC) of 500 to 5000 nM.
For `CC(C)(O)Cn1ncc(-c2onc(-c3c(F)cccc3Cl)c2C(=O)NC2CCC2)c1C(F)(F)F` [Example 43, 3-(2-chloro-6-fluorophenyl)-N-cyclobutyl-5-(1-(2-hydroxy-2-methylpropyl)-5-(trifluoromethyl)-1H-pyrazol-4-yl)isoxazole-4-carboxamide], the IC50 (INF-γ; Homo sapiens, PBMC) was 500 to 5000 nM, the IC50 (IL-17F; Homo sapiens, PBMC) was 500 to 5000 nM and the IC50 (IL-17A; Homo sapiens, PBMC) was 500 to 5000 nM.
Work on `COc1cccc(-c2noc(-c3cnn(C[C@@H](C)O)c3C(F)(F)F)c2-c2ccncn2)c1Cl` [Example 119, (2R)-1-{4-[3-(2-chloro-3-methoxyphenyl)-4-(pyrimidin-4-yl)-1,2-oxazol-5-yl]-5-(trifluoromethyl)-1H-pyrazol-1-yl}propan-2-ol] yielded an IC50 (INF-γ; Homo sapiens, PBMC) of 50 to 500 nM, an IC50 (IL-17F; Homo sapiens, PBMC) of 500 to 5000 nM and an IC50 (IL-17A; Homo sapiens, PBMC) of 500 to 5000 nM.
`C=CCCC(=O)c1c(-c2c(F)cccc2Cl)noc1-c1cnn(CC(C)(C)O)c1C(F)(F)F` [Example 37, 1-[3-(2-chloro-6-fluorophenyl)-5-[1-(2-hydroxy-2-methylpropyl)-5-(trifluoromethyl)-1H-pyrazol-4-yl]-1,2-oxazol-4-yl]pent-4-en-1-one] showed an IC50 (INF-γ; Homo sapiens, PBMC) of 50 to 500 nM, an IC50 (IL-17F; Homo sapiens, PBMC) of 50 to 500 nM and an IC50 (IL-17A; Homo sapiens, PBMC) of 50 to 500 nM.
`COC(=O)c1c(-c2cccnc2OC)noc1-c1cnn(C[C@@H](C)O)c1C(F)(F)F` [Example 21, methyl (R)-5-(1-(2-hydroxypropyl)-5-(trifluoromethyl)-1H-pyrazol-4-yl)-3-(2-methoxypyridin-3-yl)isoxazole-4-carboxylate] was tested, and the IC50 (INF-γ; Homo sapiens, PBMC) was 500 to 5000 nM, the IC50 (IL-17F; Homo sapiens, PBMC) was 500 to 5000 nM and the IC50 (IL-17A; Homo sapiens, PBMC) was 500 to 5000 nM.
Work on `COCc1c(-c2ccccc2Cl)noc1-c1cnn([C@H]2C[C@@](C)(O)C2)c1C(F)(F)F` [Example 74, 3-(4-(3-(2-chlorophenyl)-4-(methoxymethyl)isoxazol-5-yl)-5-(trifluoromethyl)-1H-pyrazol-1-yl)-1-methylcyclobutan-1-ol] yielded an IC50 (INF-γ; Homo sapiens, PBMC) of 50 to 500 nM, an IC50 (IL-17F; Homo sapiens, PBMC) of 50 to 500 nM and an IC50 (IL-17A; Homo sapiens, PBMC) of 50 to 500 nM.
`Cc1c(-c2onc(-c3ccccc3Cl)c2COC2CC2)cnn1CCC(C)(C)O` [Example 79, 4-{4-[3-(2-chlorophenyl)-4-(cyclopropoxymethyl)-1,2-oxazol-5-yl]-5-methyl-1H-pyrazol-1-yl}-2-methylbutan-2-ol] gave an IC50 (INF-γ; Homo sapiens, PBMC) of less than 50 nM, an IC50 (IL-17F; Homo sapiens, PBMC) of 50 to 500 nM and an IC50 (IL-17A; Homo sapiens, PBMC) of 50 to 500 nM.
`COC[C@]1(O)C[C@@H](n2ncc(-c3onc(-c4ccccc4Cl)c3C(=O)OC)c2C(F)(F)F)C1` [Example 29, methyl 3-(2-chlorophenyl)-5-(1-(3-hydroxy-3-(methoxymethyl)cyclobutyl)-5-(trifluoromethyl)-1H-pyrazol-4-yl)isoxazole-4-carboxylate] gave an IC50 (INF-γ; Homo sapiens, PBMC) of 50 to 500 nM, an IC50 (IL-17F; Homo sapiens, PBMC) of 500 to 5000 nM and an IC50 (IL-17A; Homo sapiens, PBMC) of 500 to 5000 nM.
Compound `COc1cccc(-c2noc(-c3cnn(CC(C)(C)O)c3C(F)(F)F)c2-c2ccncn2)c1Cl` [Example 120, 1-{4-[3-(2-chloro-3-methoxyphenyl)-4-(pyrimidin-4-yl)-1,2-oxazol-5-yl]-5-(trifluoromethyl)-1H-pyrazol-1-yl}-2-methylpropan-2-ol] has an IC50 (INF-γ; Homo sapiens, PBMC) of 500 to 5000 nM, an IC50 (IL-17F; Homo sapiens, PBMC) of no less than 5000 nM and an IC50 (IL-17A; Homo sapiens, PBMC) of 500 to 5000 nM.
